From PubChem BioAssay AID2060908 (Molecular Pharmacology Branch, DTP, NCI, 2025)

System: 186277-243-T-J2-PDC complex spheroids, viability
Assay: Anticancer human tumor 186277-243-T-J2-PDC patient-derived colon adenocarcinoma cell line growth inhibition [RAS]
Details: for IC50: curve of first compound; for viability, T/C: stronger effect = lower value; active = viability on the fitted dose curve at most 10% of control; inactive = the rest
In short: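 Multi-cell-type spheroids: tumor cells plus HUVEC endothelial cells and mesenchymal stem cells. RAS-pathway inhibitors were combined with targeted agents, each dosed in half-log steps down from clinical Cmax, or from 10 microM when Cmax was unknown.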
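Also: spheroids exposed to compounds for 7 days before viability read.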

Nc1ccn(C2OC(CO)C(O)C2(F)F)c(=O)n1 (configuration not stated) + C=CC(=O)N1CCN(c2nc(OCC3CCCN3C)nc3c(F)c(-c4nc(N)cc(C)c4C(F)(F)F)c(Cl)cc23)C(C)C1
5.02 nM: IC50 (second compound 0.01 µM)
< 3.16 nM: IC50 (second compound 1 µM)
5.06 nM: IC50 (second compound 0.00316 µM)
4.55 nM: IC50 (second compound 0.0316 µM)
4.45 nM: IC50 (second compound 0.316 µM)
4.41 nM: IC50 (second compound 0.1 µM)
inactive: viability, T/C (second compound 0.00316 µM, first compound 0.00316 µM) 73.3% | viability, T/C (second compound 0.00316 µM, first compound 0.01 µM) 16.4% | viability, T/C (second compound 0.00316 µM, first compound 0.0316 µM) 12.9% | viability, T/C (second compound 0.00316 µM, first compound 0.1 µM) 10.3% | viability, T/C (second compound 0.00316 µM, first compound 0.316 µM) 11.1% | viability, T/C (second compound 0.00316 µM, first compound 1 µM) 11.5% | viability, T/C (second compound 0.01 µM, first compound 0.00316 µM) 73.9% | viability, T/C (second compound 0.01 µM, first compound 0.01 µM) 14.4% | viability, T/C (second compound 0.01 µM, first compound 0.0316 µM) 10.9% | viability, T/C (second compound 0.01 µM, first compound 0.1 µM) 10.2% | viability, T/C (second compound 0.01 µM, first compound 0.316 µM) 9.07% | viability, T/C (second compound 0.01 µM, first compound 1 µM) 11% | viability, T/C (second compound 0.0316 µM, first compound 0.00316 µM) 65.2% | viability, T/C (second compound 0.0316 µM, first compound 0.01 µM) 17.3% | viability, T/C (second compound 0.0316 µM, first compound 0.0316 µM) 13.5% | viability, T/C (second compound 0.0316 µM, first compound 0.1 µM) 10.2% | viability, T/C (second compound 0.0316 µM, first compound 0.316 µM) 10.7% | viability, T/C (second compound 0.0316 µM, first compound 1 µM) 12.2% | viability, T/C (second compound 0.1 µM, first compound 0.00316 µM) 64.1% | viability, T/C (second compound 0.1 µM, first compound 0.01 µM) 15.2% | viability, T/C (second compound 0.1 µM, first compound 0.0316 µM) 11.7% | viability, T/C (second compound 0.1 µM, first compound 0.1 µM) 11.3% | viability, T/C (second compound 0.1 µM, first compound 0.316 µM) 10.1% | viability, T/C (second compound 0.1 µM, first compound 1 µM) 11.8% | viability, T/C (second compound 0.316 µM, first compound 0.00316 µM) 64.3% | viability, T/C (second compound 0.316 µM, first compound 0.01 µM) 16% | viability, T/C (second compound 0.316 µM, first compound 0.0316 µM) 13.1% | viability, T/C (second compound 0.316 µM, first compound 0.1 µM) 11.8% | viability, T/C (second compound 0.316 µM, first compound 0.316 µM) 11.8% | viability, T/C (second compound 0.316 µM, first compound 1 µM) 12.9% | viability, T/C (second compound 1 µM, first compound 0.00316 µM) 45.3% | viability, T/C (second compound 1 µM, first compound 0.01 µM) 18.9% | viability, T/C (second compound 1 µM, first compound 0.0316 µM) 17.2% | viability, T/C (second compound 1 µM, first compound 0.1 µM) 14.1% | viability, T/C (second compound 1 µM, first compound 0.316 µM) 13.5% | viability, T/C (second compound 1 µM, first compound 1 µM) 14.8%
